{
  "source": "patent US20130310326A1",
  "about": "“Histatin for Corneal Wound Healing and Ocular Surface Disease” (RAPID PATHOGEN SCREENING, INC., priority 2012, published 2013)",
  "system": "corneal wounds (epithelial defects in the right eye)",
  "test": "Corneal wound healing in rabbits (epithelial defect, fluorescein staining, computerized area determination)",
  "assay_type": "in vivo, New Zealand White rabbits",
  "details": "for Percentage of 1 hour post wound size: approximate, without standard deviation",
  "experimental": "The study disclosed herein evaluates and quantifies the wound healing effects of histatins on the ocular surface of New Zealand White rabbits.\nEpithelial defects are created in the right eye (oculus dexter, OD) of 12 New Zealand White rabbits. Due to animal regulations, bilateral wounding is not permitted. After the epithelial defects are made, the rabbits are randomized into treatment groups. Two (2) groups are treated with different cyclized histatin concentrations: 0.1 μg/ml and 10 μg/ml dissolved into an ophthalmic artificial tear preparation and delivered to the rabbits as an eye drop three times daily. Histatins known in the art, including, but not limited to, amino acid SEQ. ID. NOs. 1 through 33, which include Hst-1 (SEQ. ID. NO. 4), Hst-2 (SEQ. ID. NO. 5), Hst-3 (SEQ. ID. NO. 6), Hst-5 (SEQ. ID. NO. 30), and sortase cyclized histatin (SEQ. ID. NO. 33), may be used in these studies or in treatment protocols. […] This control group should receive the same vehicle identical to the other two groups but without histatin. An over-the-counter artificial tear preferably serves as the vehicle. The initial study included four (4) animals/group in three (3) groups, for a total of twelve rabbits.\nEach rabbit group is preferably given moxifloxicin treatment to prevent infection.\nThe corneal wounds are then evaluated daily for the corneal wound healing abilities of histatin via fluorescein staining, fluorescent slit lamp biomicrophotography and computerized area determination. Evaluators are masked to the therapeutic treatment given to the rabbits. After healing, two (2) animals from each group are euthanized, and the corneas collected for histological processing (H&E staining with subsequent evaluation by veterinary histopathologist). The decision to perform histopathologic analysis after tissue procurement is made only if there is proven difference in healing between the different treatment groups and the controls. At study termination (study preferably continues for seven days), the remaining animals are euthanized.\nThe histatin used in this study was cyclized histatin 1. The histatin 1 used was a sortase cyclized histatin with amino acid SEQ. ID. NO.",
  "data": [
    {"substance": "cyclo(DNLPETGGDSHEKRHHGYRRKFHEKHHSHREFPFYGDYGSNYLY) [cyclized histatin 1]", "values": [
      {"measurement": "corneal wound size", "setting": "0.1 μg/ml eye drop three times daily, 0 hours post wound", "result": "112.7 ± 37.8", "unit": "mm^2"},
      {"measurement": "corneal wound size", "setting": "0.1 μg/ml eye drop three times daily, 6 hours post wound", "result": "96.2 ± 13.6", "unit": "mm^2"},
      {"measurement": "corneal wound size", "setting": "0.1 μg/ml eye drop three times daily, 24 hours post wound", "result": "77.5 ± 25.0", "unit": "mm^2"},
      {"measurement": "corneal wound size", "setting": "0.1 μg/ml eye drop three times daily, 30 hours post wound", "result": "48.8 ± 8.0", "unit": "mm^2"},
      {"measurement": "corneal wound size", "setting": "0.1 μg/ml eye drop three times daily, 48 hours post wound", "result": "2.7 ± 3.1", "unit": "mm^2"},
      {"measurement": "corneal wound size", "setting": "0.1 μg/ml eye drop three times daily, 54 hours post wound", "result": "0.00 ± 0.00", "unit": "mm^2"},
      {"measurement": "corneal wound size", "setting": "0.1 μg/ml eye drop three times daily, 72 hours post wound", "result": "0.00 ± 0.00", "unit": "mm^2"},
      {"measurement": "healing activity of corneal wounds versus control", "setting": "0.1 μg/ml or 10 μg/ml versus vehicle control, rabbits", "result": "significant dose dependent accelerated healing activity"},
      {"measurement": "Percentage of 1 hour post wound size", "setting": "0.1 ug/ml, 0 hours post wound", "result": 100, "unit": "%"},
      {"measurement": "Percentage of 1 hour post wound size", "setting": "0.1 ug/ml, 6 hours post wound", "result": 85, "unit": "%"},
      {"measurement": "Percentage of 1 hour post wound size", "setting": "0.1 ug/ml, 24 hours post wound", "result": 69, "unit": "%"},
      {"measurement": "Percentage of 1 hour post wound size", "setting": "0.1 ug/ml, 30 hours post wound", "result": 43, "unit": "%"},
      {"measurement": "Percentage of 1 hour post wound size", "setting": "0.1 ug/ml, 48 hours post wound", "result": 2, "unit": "%"},
      {"measurement": "Percentage of 1 hour post wound size", "setting": "0.1 ug/ml, 54 hours post wound", "result": 0, "unit": "%"},
      {"measurement": "Percentage of 1 hour post wound size", "setting": "0.1 ug/ml, 72 hours post wound", "result": 0, "unit": "%"},
      {"measurement": "corneal wound size", "setting": "10 μg/ml eye drop three times daily, 0 hours post wound", "result": "88.4 ± 31.6", "unit": "mm^2"},
      {"measurement": "corneal wound size", "setting": "10 μg/ml eye drop three times daily, 6 hours post wound", "result": "74.0 ± 14.7", "unit": "mm^2"},
      {"measurement": "corneal wound size", "setting": "10 μg/ml eye drop three times daily, 24 hours post wound", "result": "51.4 ± 9.3", "unit": "mm^2"},
      {"measurement": "corneal wound size", "setting": "10 μg/ml eye drop three times daily, 30 hours post wound", "result": "37.7 ± 9.4", "unit": "mm^2"},
      {"measurement": "corneal wound size", "setting": "10 μg/ml eye drop three times daily, 48 hours post wound", "result": "0.00 ± 0.07", "unit": "mm^2"},
      {"measurement": "corneal wound size", "setting": "10 μg/ml eye drop three times daily, 54 hours post wound", "result": "0.00 ± 0.00", "unit": "mm^2"},
      {"measurement": "corneal wound size", "setting": "10 μg/ml eye drop three times daily, 72 hours post wound", "result": "0.00 ± 0.00", "unit": "mm^2"},
      {"measurement": "Percentage of 1 hour post wound size", "setting": "10 ug/ml, 0 hours post wound", "result": 100, "unit": "%"},
      {"measurement": "Percentage of 1 hour post wound size", "setting": "10 ug/ml, 6 hours post wound", "result": 84, "unit": "%"},
      {"measurement": "Percentage of 1 hour post wound size", "setting": "10 ug/ml, 24 hours post wound", "result": 58, "unit": "%"},
      {"measurement": "Percentage of 1 hour post wound size", "setting": "10 ug/ml, 30 hours post wound", "result": 43, "unit": "%"},
      {"measurement": "Percentage of 1 hour post wound size", "setting": "10 ug/ml, 48 hours post wound", "result": 0, "unit": "%"},
      {"measurement": "Percentage of 1 hour post wound size", "setting": "10 ug/ml, 54 hours post wound", "result": 0, "unit": "%"},
      {"measurement": "Percentage of 1 hour post wound size", "setting": "10 ug/ml, 72 hours post wound", "result": 0, "unit": "%"}
    ]}
  ]
}
